Test results as given in patent US10178866B2, “N-halamine containing fibrous compositions and uses thereof” (priority 2014, dated 2019).
Values after ≈ are worked out from the molar mass of the structure shown.

How the values were obtained:
[1] = test system: Staphylococcus aureus ATCC 6538; assay: sandwich test, wet wipes; format: cell-based; conditions: contact time 1 min, inoculum 6.35
Protocol: (§1) In the first test, CVS brand commercial wet wipes were first dried at 45° C. for 1 hour before impregnation with solutions of compound I. Different concentrations (wt %) of compound I were prepared in ethyl alcohol, and the wipes were soaked in the solutions for 5 minutes. After soaking in the solutions, each wipe was mounted between two filter papers, and a weight of 290 grams was placed uniformly over the stack. At the end of a 30 second period, the wet wipes were placed in closed vials to prevent further loss of solvent.
(§2) For antibacterial testing, CVS brand commercial wipes were used as received as controls and wipes impregnated with compound I at a concentration of 1.0 wt % in ethyl alcohol were prepared as described above. […] After the plates were incubated at 37° C. for 24 hours, viable bacterial colonies were counted for the biocidal efficacy analysis.

[2] = test system: Escherichia coli O157:H7 ATCC 43895; assay: sandwich test, wet wipes; format: cell-based; conditions: contact time 1 min, inoculum 6.50
Protocol: as §1, §2

[3] = solubility; format: physicochemical; conditions: 22° C.
From the text: The precursor 2,2,5,5-tetramethyl-4-imidazolidinone can be prepared according to the method outlined in Tsao or in Worley based upon oxidation of the corresponding thione with hydrogen peroxide in basic solution. The thione can be prepared by the method of Christian (see “4-imidazolidinethiones,” J. Org. Chem., 1957; 22:396), which entails reaction of sodium cyanide, ammonium chloride, ammonium sulfide, and acetone in aqueous solution. […] Compound I in its pure form contains 20.1 percent by weight oxidative chlorine. […] However, the compound is much more soluble in ethyl or isopropyl alcohol, such that a solution greater than 5000 mg/L oxidative chlorine can easily be obtained.

[4] = test system: Staphylococcus aureus ATCC 6538; assay: sandwich contact test, polypropylene nonwoven face-piece material; format: cell-based; conditions: inoculum 6.26 log
Protocol: (§3) Compound I (1-chloro-2,2,5,5-tetramethyl-imidazolindinone) at 1 wt %) was dissolved in ethyl alcohol solution at room temperature, and then 300 cm^2 pieces of polypropylene nonwoven fabrics were soaked in the solution for 10 minutes. The fabrics were then padded through a laboratory wringer (Birch Brothers Southern, Waxhaw, N.C., U.S.A.) at low pressure settings. This procedure was followed by drying the fabrics at room temperature for 24 hours. The control fabrics were untreated 22 g/m^2 and 50 g/m^2 polypropylene nonwovens.
(§4) Two types of tests were conducted in order to determine the biocidal efficacy of the face mask embodiments. Staphylococcus aureus (S. aureus, ATCC 6538) was used as a Gram-positive bacterium and Escherichia coli(E. coli O157:H7, ATCC 43895) was used as a Gram-negative bacterium in order to challenge the treated (impregnated with compound I) and non-treated (control) fabrics.
(§5) In the first method, a “sandwich test” was used (see Worley et al., “Novel N-halamine Siloxane Monomers and Polymers for Preparing Biocidal Coatings,” Surf Coat. Int., Part B, 2005; 88:93). In this procedure, bacteria were suspended in 100 μM phosphate buffer (pH 7) to produce a suspension of known concentration of bacteria (colony forming units, CFU/mL). Then, an aliquot of 25 μL of this suspension was placed in the center of a 2.54 cm square swatch, and a second identical swatch was placed on top. Both swatches were covered by a sterile weight to ensure sufficient contact with the bacteria. After predetermined contact times, samples were quenched by 5.0 mL of sterile 0.02 N sodium thiosulfate solution to neutralize the oxidative chlorine and thus terminate the disinfection action. Samples were vortexed for 2 minutes, and then serial dilutions were prepared using pH 7, 100 μM phosphate buffer and plated on Trypticase soy agar plates. After incubating the plates at 37° C. for 24 hours, bacterial colonies were counted for the biocidal efficacy analysis. For each contact time a single fabric swatch sandwich was vortexed in a quenching solution to wash the bacteria into a suspension which was immediately plated into duplicate serial dilutions followed by incubation and counting the viable colonies of bacteria. All experiments were performed at least twice (on different days) using different bacterial inocula.
(§6) Antimicrobial efficacy of the mask materials was analyzed by the sandwich contact test method. The antimicrobial efficacies of the treated (impregnated with compound I) and non-treated (control) swatches were evaluated by challenging both types of fabrics against S. aureus and E. coli O157:H7 where the bacteria inoculum population was 1.80×10^6 CFU and 1.27×10^6 CFU, respectively. In Table 2, antimicrobial results are summarized at different contact time intervals.

[5] = test system: Escherichia coli O157:H7 ATCC 43895; assay: as above; format: cell-based; conditions: inoculum 6.10 log
Protocol: as §3, §4, §5, §6

[6] = 22 g/m^2 fabric, Cl^+ % = 0.52, contact time 5 min
[7] = 22 g/m^2 fabric, Cl^+ % = 0.52, contact time 10 min
[8] = 22 g/m^2 fabric, Cl^+ % = 0.52, contact time 15 min
[9] = 22 g/m^2 fabric, Cl^+ % = 0.52, contact time 30 min
[10] = 50 g/m^2 fabric, Cl^+ % = 0.52, contact time 5 min
[11] = 50 g/m^2 fabric, Cl^+ % = 0.52, contact time 10 min
[12] = 50 g/m^2 fabric, Cl^+ % = 0.52, contact time 15 min
[13] = 50 g/m^2 fabric, Cl^+ % = 0.52, contact time 30 min

CC1(C)NC(=O)C(C)(C)N1Cl [Compound I, 1-chloro-2,2,5,5-tetramethyl-4-imidazolidinone]
Bacterial Reduction (logs) S. aureus [1]: 6.35 logs
Bacterial Reduction (logs) E. coli O157:H7 [2]: 6.5 logs
solubility in water [3]: 1930 µg/mL (≈ 10.9 mM)
weight percent of oxidative chlorine under saturated conditions ([3]; water): 0.0388 weight percent
Bacterial reduction (log) S. aureus [4, 6]: 4.13 log
Bacterial reduction (log) S. aureus [4, 7]: 6.26 log
Bacterial reduction (log) S. aureus [4, 8]: 6.26 log
Bacterial reduction (log) S. aureus [4, 9]: 6.26 log
Bacterial reduction (log) S. aureus [4, 10]: 6.26 log
Bacterial reduction (log) S. aureus [4, 11]: 6.26 log
Bacterial reduction (log) S. aureus [4, 12]: 6.26 log
Bacterial reduction (log) S. aureus [4, 13]: 6.26 log
Bacterial reduction (log) E. coli [5, 6]: 3.68 log
Bacterial reduction (log) E. coli [5, 7]: 6.10 log
Bacterial reduction (log) E. coli [5, 8]: 6.10 log
Bacterial reduction (log) E. coli [5, 9]: 6.10 log
Bacterial reduction (log) E. coli [5, 10]: 3.80 log
Bacterial reduction (log) E. coli [5, 11]: 6.10 log
Bacterial reduction (log) E. coli [5, 12]: 6.10 log
Bacterial reduction (log) E. coli [5, 13]: 6.10 log
